Legend:
Type in all cases: functional
Bipolaris sorokiniana = experiment: Antifungal activity against Bipolaris sorokiniana assessed as percent inhibition at 100 ug/ml
Pyricularia oryzae = experiment: Antifungal activity against Pyricularia oryzae assessed as percent inhibition at 100 ug/ml
[1] = Antifungal activity against Fusarium oxysporum f. sp. cucumerinum assessed as percent inhibition at 100 ug/ml
Alternaria brassicae = experiment: Antifungal activity against Alternaria brassicae assessed as percent inhibition at 100 ug/ml
Alternaria alternata = experiment: Antifungal activity against Alternaria alternata assessed as percent inhibition at 100 ug/ml
[2] = test system: Fusarium oxysporum f. sp. vasinfectum; experiment: Antifungal activity against Fusarium oxysporum f. sp. vasinfectum assessed as percent inhibition at 100 ug/ml
Fusarium graminearum = experiment: Antifungal activity against Fusarium graminearum assessed as percent inhibition at 100 ug/ml

Cc1cc(O)no1 [HYMEXAZOL]
inhibition at 100 µg/mL (Bipolaris sorokiniana): 61.9%
inhibition at 100 µg/mL (Pyricularia oryzae): 75.1%
inhibition [1]: 60%
inhibition at 100 µg/mL (Alternaria brassicae): 58%
inhibition at 100 µg/mL (Alternaria alternata): 70.8%
inhibition at 100 µg/mL [2]: 63.2%
inhibition at 100 µg/mL (Fusarium graminearum): 68%

C/C(=N\NC(=N)N)c1cn(S(=O)(=O)c2ccccc2)c2ccccc12
inhibition at 100 µg/mL (Bipolaris sorokiniana): 75.3%
inhibition at 100 µg/mL (Pyricularia oryzae): 74.3%
inhibition [1]: 49.7%
inhibition at 100 µg/mL (Alternaria brassicae): 40.2%
inhibition at 100 µg/mL (Alternaria alternata): 73.5%
inhibition at 100 µg/mL [2]: 60%
inhibition at 100 µg/mL (Fusarium graminearum): 37.8%

C/C(=N\NC(=N)N)c1cn(S(=O)(=O)c2ccc(C)cc2)c2ccccc12
inhibition at 100 µg/mL (Bipolaris sorokiniana): 58.4%
inhibition at 100 µg/mL (Pyricularia oryzae): 52.3%
inhibition [1]: 37.2%
inhibition at 100 µg/mL (Alternaria brassicae): 37.9%
inhibition at 100 µg/mL (Alternaria alternata): 62.9%
inhibition at 100 µg/mL [2]: 58.3%
inhibition at 100 µg/mL (Fusarium graminearum): 48.8%

CC/C(=N\NC(=N)N)c1cn(S(=O)(=O)c2ccccc2)c2ccccc12
inhibition at 100 µg/mL (Bipolaris sorokiniana): 69.2%
inhibition at 100 µg/mL (Pyricularia oryzae): 75.6%
inhibition [1]: 48.4%
inhibition at 100 µg/mL (Alternaria brassicae): 43.3%
inhibition at 100 µg/mL (Alternaria alternata): 73.8%
inhibition at 100 µg/mL [2]: 56.7%
inhibition at 100 µg/mL (Fusarium graminearum): 50.5%

N=C(N)N/N=C/c1cn(S(=O)(=O)c2ccccc2)c2ccccc12
inhibition at 100 µg/mL (Bipolaris sorokiniana): 66.5%
inhibition at 100 µg/mL (Pyricularia oryzae): 57.8%
inhibition [1]: 33.7%
inhibition at 100 µg/mL (Alternaria brassicae): 38.8%
inhibition at 100 µg/mL (Alternaria alternata): 61.5%
inhibition at 100 µg/mL [2]: 47.8%
inhibition at 100 µg/mL (Fusarium graminearum): 46.3%

Cc1ccc(S(=O)(=O)n2cc(/C=N/NC(=N)N)c3c(C)cccc32)cc1
inhibition at 100 µg/mL (Bipolaris sorokiniana): 72.6%
inhibition at 100 µg/mL (Pyricularia oryzae): 72.2%
inhibition [1]: 44.7%
inhibition at 100 µg/mL (Alternaria brassicae): 49.1%
inhibition at 100 µg/mL (Alternaria alternata): 70.8%
inhibition at 100 µg/mL [2]: 41.6%
inhibition at 100 µg/mL (Fusarium graminearum): 48.2%

CCCCC/C(=N\NC(=N)N)c1cn(S(=O)(=O)c2ccc(C)cc2)c2cc(C)ccc12
inhibition at 100 µg/mL (Bipolaris sorokiniana): 50.5%
inhibition at 100 µg/mL (Pyricularia oryzae): 44.5%
inhibition [1]: 39.8%
inhibition at 100 µg/mL (Alternaria brassicae): 22.8%
inhibition at 100 µg/mL (Alternaria alternata): 54.7%
inhibition at 100 µg/mL [2]: 33.3%
inhibition at 100 µg/mL (Fusarium graminearum): 28.5%

N#Cc1ccc2c(c1)c(/C=N/NC(=N)N)cn2S(=O)(=O)c1ccccc1
inhibition at 100 µg/mL (Bipolaris sorokiniana): 13.8%
inhibition at 100 µg/mL (Pyricularia oryzae): 20.1%
inhibition [1]: 11.1%
inhibition at 100 µg/mL (Alternaria brassicae): 9.09%
inhibition at 100 µg/mL (Alternaria alternata): 23.4%
inhibition at 100 µg/mL [2]: 14.1%
inhibition at 100 µg/mL (Fusarium graminearum): 26%

Cc1cccc2c1c(/C=N/NC(=N)N)cn2S(=O)(=O)c1ccccc1
inhibition at 100 µg/mL (Bipolaris sorokiniana): 36.9%
inhibition at 100 µg/mL (Pyricularia oryzae): 46.8%
inhibition [1]: 26.3%
inhibition at 100 µg/mL (Alternaria brassicae): 21.1%
inhibition at 100 µg/mL (Alternaria alternata): 42.5%
inhibition at 100 µg/mL [2]: 19.9%
inhibition at 100 µg/mL (Fusarium graminearum): 26%

N=C(N)N/N=C/c1cn(S(=O)(=O)c2cccc([N+](=O)[O-])c2)c2ccccc12
inhibition at 100 µg/mL (Bipolaris sorokiniana): 36.9%
inhibition at 100 µg/mL (Pyricularia oryzae): 42.3%
inhibition [1]: 28%
inhibition at 100 µg/mL (Alternaria brassicae): 30%
inhibition at 100 µg/mL (Alternaria alternata): 51.1%
inhibition at 100 µg/mL [2]: 28.6%
inhibition at 100 µg/mL (Fusarium graminearum): 31.4%

C/C(=N\NC(=N)N)c1cn(S(=O)(=O)c2ccccc2)c2cccc(C)c12
inhibition at 100 µg/mL (Bipolaris sorokiniana): 82.3%
inhibition at 100 µg/mL (Pyricularia oryzae): 79.6%
inhibition [1]: 63.1%
inhibition at 100 µg/mL (Alternaria brassicae): 52%
inhibition at 100 µg/mL (Alternaria alternata): 79.2%
inhibition at 100 µg/mL [2]: 64.9%
inhibition at 100 µg/mL (Fusarium graminearum): 52.3%

C/C(=N\NC(=N)N)c1cn(S(=O)(=O)c2cccc([N+](=O)[O-])c2)c2cc(C)ccc12
inhibition at 100 µg/mL (Bipolaris sorokiniana): 37.6%
inhibition at 100 µg/mL (Pyricularia oryzae): 50.7%
inhibition [1]: 34.9%
inhibition at 100 µg/mL (Alternaria brassicae): 33.3%
inhibition at 100 µg/mL (Alternaria alternata): 50.6%
inhibition at 100 µg/mL [2]: 23.2%
inhibition at 100 µg/mL (Fusarium graminearum): 20.6%

C/C(=N\NC(=N)N)c1cn(S(=O)(=O)c2ccc(C)cc2)c2cccc(C)c12
inhibition at 100 µg/mL (Bipolaris sorokiniana): 80.6%
inhibition at 100 µg/mL (Pyricularia oryzae): 84.8%
inhibition [1]: 57%
inhibition at 100 µg/mL (Alternaria brassicae): 56.9%
inhibition at 100 µg/mL (Alternaria alternata): 83%
inhibition at 100 µg/mL [2]: 55.6%
inhibition at 100 µg/mL (Fusarium graminearum): 46.6%

COc1ccc(S(=O)(=O)n2cc(/C(C)=N/NC(=N)N)c3ccc(C)cc32)cc1
inhibition at 100 µg/mL (Bipolaris sorokiniana): 35%
inhibition at 100 µg/mL (Pyricularia oryzae): 43%
inhibition [1]: 25.8%
inhibition at 100 µg/mL (Alternaria brassicae): 18.2%
inhibition at 100 µg/mL (Alternaria alternata): 42.5%
inhibition at 100 µg/mL [2]: 24.2%
inhibition at 100 µg/mL (Fusarium graminearum): 44.8%

Cc1ccc(S(=O)(=O)n2cc(/C=N/NC(=N)N)c3ccccc32)cc1
inhibition at 100 µg/mL (Bipolaris sorokiniana): 66%
inhibition at 100 µg/mL (Pyricularia oryzae): 56.7%
inhibition [1]: 36.5%
inhibition at 100 µg/mL (Alternaria brassicae): 34.9%
inhibition at 100 µg/mL (Alternaria alternata): 65.3%
inhibition at 100 µg/mL [2]: 51.8%
inhibition at 100 µg/mL (Fusarium graminearum): 44.1%

Cc1ccc(S(=O)(=O)n2cc(/C=N/NC(=N)N)c3ccc(C)cc32)cc1
inhibition at 100 µg/mL (Bipolaris sorokiniana): 46.2%
inhibition at 100 µg/mL (Pyricularia oryzae): 58.2%
inhibition [1]: 43.5%
inhibition at 100 µg/mL (Alternaria brassicae): 30.9%
inhibition at 100 µg/mL (Alternaria alternata): 59.2%
inhibition at 100 µg/mL [2]: 40.5%
inhibition at 100 µg/mL (Fusarium graminearum): 39%

CCCCC/C(=N\NC(=N)N)c1cn(S(=O)(=O)c2ccccc2)c2ccccc12
inhibition at 100 µg/mL (Bipolaris sorokiniana): 50.2%
inhibition at 100 µg/mL (Pyricularia oryzae): 52%
inhibition [1]: 38.6%
inhibition at 100 µg/mL (Alternaria brassicae): 30%
inhibition at 100 µg/mL (Alternaria alternata): 60.6%
inhibition at 100 µg/mL [2]: 30.7%
inhibition at 100 µg/mL (Fusarium graminearum): 39.4%

Cc1ccc2c(/C=N/NC(=N)N)cn(S(=O)(=O)c3ccccc3)c2c1
inhibition at 100 µg/mL (Bipolaris sorokiniana): 59.5%
inhibition at 100 µg/mL (Pyricularia oryzae): 64.2%
inhibition [1]: 41%
inhibition at 100 µg/mL (Alternaria brassicae): 48.4%
inhibition at 100 µg/mL (Alternaria alternata): 69.2%
inhibition at 100 µg/mL [2]: 40%
inhibition at 100 µg/mL (Fusarium graminearum): 47.8%

Cc1ccc(S(=O)(=O)n2cc(/C=N/NC(=N)N)c3cc(C#N)ccc32)cc1
inhibition at 100 µg/mL (Bipolaris sorokiniana): 17%
inhibition at 100 µg/mL (Pyricularia oryzae): 16.3%
inhibition [1]: 6.55%
inhibition at 100 µg/mL (Alternaria brassicae): 10.4%
inhibition at 100 µg/mL (Alternaria alternata): 15.2%
inhibition at 100 µg/mL [2]: 13%
inhibition at 100 µg/mL (Fusarium graminearum): 13.3%

Reference: ChEMBL document CHEMBL1287778, “Antifungal agents. Part 5: synthesis and antifungal activities of aminoguanidine derivatives of N-arylsulfonyl-3-acylindoles” (2010)
